Patent US11911393B2, “Non-catalytic substrate-selective p38alpha-specific MAPK inhibitors with endothelial-stabilizing and anti-inflammatory activity, and methods of use thereof” (University of Maryland, Baltimore, priority 2016, dated 2024)

Test system: TNFα-induced gene expression in HMVECLs
Assay: RNASeq of TNFα-induced gene expression
Type: cell-based, human
Details: 100 μM UM101, 10 μM SB203580

Compound: C[S+]([O-])c1ccc(-c2nc(-c3ccncc3)c(-c3ccc(F)cc3)[nH]2)cc1 (stereo not shown) [SB203580, reference compound]
- bin (gene expression response pattern) (AC003092.1 (ENSG00000236453)): 7
- bin (gene expression response pattern) (AC010642.2 (ENSG00000269794)): 7
- bin (gene expression response pattern) (AC116366.6 (ENSG00000234290)): 8
- bin (gene expression response pattern) (ADAP1 (ENSG00000105963)): 7
- bin (gene expression response pattern) (ADM2 (ENSG00000128165)): 7
- bin (gene expression response pattern) (ANKRD55 (ENSG00000164512)): 8
- bin (gene expression response pattern) (APOBEC3G (ENSG00000239713)): 7
- bin (gene expression response pattern) (APOL2 (ENSG00000128335)): 7
- bin (gene expression response pattern) (APOL6 (ENSG00000221963)): 7
- bin (gene expression response pattern) (BPGM (ENSG00000172331)): 8
- bin (gene expression response pattern) (C1QTNF1 (ENSG00000173918)): 7
- bin (gene expression response pattern) (C6orf58 (ENSG00000184530)): 7
- bin (gene expression response pattern) (C8orf4 (ENSG00000176907)): 8
- bin (gene expression response pattern) (C11orf88 (ENSG00000183644)): 7
- bin (gene expression response pattern) (C15orf54 (ENSG00000175746)): 8
- bin (gene expression response pattern) (CCL1 (ENSG00000108702)): 7
- bin (gene expression response pattern) (CD40 (ENSG00000101017)): 7
- bin (gene expression response pattern) (CD69 (ENSG00000110848)): 8
- bin (gene expression response pattern) (CDON (ENSG00000064309)): 7
- bin (gene expression response pattern) (CLEC2D (ENSG00000069493)): 7
- bin (gene expression response pattern) (CSF2 (ENSG00000164400)): 8
- bin (gene expression response pattern) (CTC-231O11.1 (ENSG00000253522)): 7
- bin (gene expression response pattern) (CTD-2369P2.8 (ENSG00000267607)): 7
- bin (gene expression response pattern) (CX3CL1 (ENSG00000006210)): 7
- bin (gene expression response pattern) (DRD4 (ENSG00000069696)): 7
- bin (gene expression response pattern) (EBI3 (ENSG00000105246)): 8
- bin (gene expression response pattern) (EGLN3 (ENSG00000129521)): 7
- bin (gene expression response pattern) (ENKUR (ENSG00000151023)): 7
- bin (gene expression response pattern) (ERVFRD-1 (ENSG00000244476)): 8
- bin (gene expression response pattern) (ETV3L (ENSG00000253831)): 7
- bin (gene expression response pattern) (F2RL3 (ENSG00000127533)): 8
- bin (gene expression response pattern) (FAM101A (ENSG00000178882)): 8
- bin (gene expression response pattern) (GCH1 (ENSG00000131979)): 7
- bin (gene expression response pattern) (GPR37L1 (ENSG00000170075)): 7
- bin (gene expression response pattern) (GPR182 (ENSG00000166856)): 7
- bin (gene expression response pattern) (HAND1 (ENSG00000113196)): 8
- bin (gene expression response pattern) (HAS2 (ENSG00000170961)): 8
- bin (gene expression response pattern) (HELZ2 (ENSG00000130589)): 7
- bin (gene expression response pattern) (HEPACAM (ENSG00000165478)): 8
- bin (gene expression response pattern): AC073850.6 (HMVECLs, TNFα): 5
- bin (gene expression response pattern): AGPAT9 (HMVECLs, TNFα): 5
- bin (gene expression response pattern): ARHGAP18 (HMVECLs, TNFα): 5
- bin (gene expression response pattern): ARHGEF28 (HMVECLs, TNFα): 5
- bin (gene expression response pattern): ARL11 (HMVECLs, TNFα): 5
- bin (gene expression response pattern): BAMBI (HMVECLs, TNFα): 1
- bin (gene expression response pattern): BCL2L10 (HMVECLs, TNFα): 5
- bin (gene expression response pattern): BMF (HMVECLs, TNFα): 5
- bin (gene expression response pattern): C2CD4B (HMVECLs, TNFα): 5
- bin (gene expression response pattern): C19orf35 (HMVECLs, TNFα): 5
- bin (gene expression response pattern): CCL17 (HMVECLs, TNFα): 3
- bin (gene expression response pattern): CD200 (HMVECLs, TNFα): 3
- bin (gene expression response pattern): CD207 (HMVECLs, TNFα): 3
- bin (gene expression response pattern): CELF2-AS1 (HMVECLs, TNFα): 5
- bin (gene expression response pattern): CH25H (HMVECLs, TNFα): 5
- bin (gene expression response pattern): CTA-212A2.1 (HMVECLs, TNFα): 3
- bin (gene expression response pattern): CTA-221G9.12 (HMVECLs, TNFα): 5
- bin (gene expression response pattern): CTB-152G17.6 (HMVECLs, TNFα): 5
- bin (gene expression response pattern): CXCL3 (HMVECLs, TNFα): 5
- bin (gene expression response pattern): CXCL5 (HMVECLs, TNFα): 3
- bin (gene expression response pattern): CXCL10 (HMVECLs, TNFα): 3
- bin (gene expression response pattern): CXCL11 (HMVECLs, TNFα): 3
- bin (gene expression response pattern): DLL4 (HMVECLs, TNFα): 1
- bin (gene expression response pattern): ELOVL7 (HMVECLs, TNFα): 3
- bin (gene expression response pattern): EPHX4 (HMVECLs, TNFα): 5
- bin (gene expression response pattern): ETV1 (HMVECLs, TNFα): 1
- bin (gene expression response pattern): EXOC3L4 (HMVECLs, TNFα): 3
- bin (gene expression response pattern): FAM84A (HMVECLs, TNFα): 5
- bin (gene expression response pattern): FBX032 (HMVECLs, TNFα): 5
- bin (gene expression response pattern): FHL2 (HMVECLs, TNFα): 5
- bin (gene expression response pattern): FLRT3 (HMVECLs, TNFα): 1
- bin (gene expression response pattern): FP236383.10 (HMVECLs, TNFα): 4
- bin (gene expression response pattern): GBP1P1 (HMVECLs, TNFα): 3
- bin (gene expression response pattern): GBP4 (HMVECLs, TNFα): 3
- bin (gene expression response pattern): GFOD1 (HMVECLs, TNFα): 5
- bin (gene expression response pattern): GPR68 (HMVECLs, TNFα): 2
- bin (gene expression response pattern): GPR88 (HMVECLs, TNFα): 3
- bin (gene expression response pattern): GRPEL2 (HMVECLs, TNFα): 5
- bin (gene expression response pattern): HAS3 (HMVECLs, TNFα): 3
- bin (gene expression response pattern): HEY1 (HMVECLs, TNFα): 5
- bin (gene expression response pattern): HMSD (HMVECLs, TNFα): 5
- bin (gene expression response pattern): HRCT1 (HMVECLs, TNFα): 5
- bin (gene expression response pattern): HTR1D (HMVECLs, TNFα): 5
- bin (gene expression response pattern): IBA57-AS1 (HMVECLs, TNFα): 5
- bin (gene expression response pattern): ID1 (HMVECLs, TNFα): 5
- bin (gene expression response pattern): IDO1 (HMVECLs, TNFα): 3
- bin (gene expression response pattern): IL1B (HMVECLs, TNFα): 3
- bin (gene expression response pattern): INPP4B (HMVECLs, TNFα): 5
- bin (gene expression response pattern): JUNB (HMVECLs, TNFα): 5
- bin (gene expression response pattern): KCNJ12 (HMVECLs, TNFα): 1
- bin (gene expression response pattern): KDM7A (HMVECLs, TNFα): 5
- bin (gene expression response pattern): KIAA1211L (HMVECLs, TNFα): 1
- bin (gene expression response pattern): KIT (HMVECLs, TNFα): 5
- bin (gene expression response pattern): KLF15 (HMVECLs, TNFα): 5
- bin (gene expression response pattern): KSR2 (HMVECLs, TNFα): 5
- bin (gene expression response pattern): LINC00677 (HMVECLs, TNFα): 3
- bin (gene expression response pattern): LMCD1 (HMVECLs, TNFα): 5
- bin (gene expression response pattern): LONRF3 (HMVECLs, TNFα): 5
- bin (gene expression response pattern): LRFN1 (HMVECLs, TNFα): 5
- bin (gene expression response pattern): LRFN5 (HMVECLs, TNFα): 2
- bin (gene expression response pattern): LYL1 (HMVECLs, TNFα): 5
